In ChEMBL document CHEMBL1142452, “Pyrazolidine-3,5-dione derivatives as potent non-steroidal agonists of farnesoid X receptor: virtual screening, synthesis, and biological evaluation” (Bioorg Med Chem Lett, 2008):
Activity calls are given as the source filed them. The calls are words filed in the database; no cut-off is given here.

Experiments:
[1] = target: T1, Bile acid receptor (Homo sapiens, UniProt Q96RI1); test: Agonist activity at FXR assessed as activation by cell based luciferase transactivation assay; assay type: functional
T1 sequence (Q96RI1 whole entry): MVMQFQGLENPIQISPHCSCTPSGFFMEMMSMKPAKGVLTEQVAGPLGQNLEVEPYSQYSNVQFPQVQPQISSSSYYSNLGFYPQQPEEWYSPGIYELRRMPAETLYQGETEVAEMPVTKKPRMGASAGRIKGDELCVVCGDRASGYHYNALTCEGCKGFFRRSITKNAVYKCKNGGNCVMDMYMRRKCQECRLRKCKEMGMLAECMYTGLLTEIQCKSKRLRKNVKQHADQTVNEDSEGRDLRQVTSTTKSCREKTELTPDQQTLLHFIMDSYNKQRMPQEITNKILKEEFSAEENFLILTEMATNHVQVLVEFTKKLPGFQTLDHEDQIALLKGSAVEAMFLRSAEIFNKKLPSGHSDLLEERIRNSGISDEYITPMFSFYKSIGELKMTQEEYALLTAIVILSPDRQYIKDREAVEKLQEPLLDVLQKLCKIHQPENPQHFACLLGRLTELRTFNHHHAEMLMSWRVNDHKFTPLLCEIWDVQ

[2] = target: T2, Bile acid receptor (Homo sapiens) (UniProt Q96RI1); test: Agonist activity at FXR assessed as activation by cell based luciferase transactivation assay at less than 5 uM; assay type: functional
T2 sequence (whole entry): T1 sequence (Q96RI1 whole entry)

EC50 [1] | Activity [2] | Structure (SMILES)
3.31 µM |  | O=C1NN(C(=O)c2ccco2)C(=O)/C1=C/c1ccc(OCc2ccccc2)cc1
4.27 µM |  | O=C1C(=Cc2cccc([N+](=O)[O-])c2)C(=O)N(c2ccccc2)N1c1ccccc1
5.15 µM |  | Cc1cccc(COc2cccc(/C=C3\C(=O)NN(c4ccccc4)C3=O)c2)c1
6.17 µM |  | CCOC(=O)C(=Cc1ccc(OCc2ccccc2)cc1)C(=O)OCC
4.79 µM |  | O=C1NN(c2ccccc2)C(=O)/C1=C/c1cccc(OCc2cccc(F)c2)c1
2.04 µM | Active | O=C1NN(c2ccccc2)C(=O)/C1=C/c1cccc(OCc2ccc(C(F)(F)F)cc2)c1
6.92 µM |  | O=C1NN(c2ccccc2)C(=O)/C1=C/c1cccc(OCc2cccc(C(F)(F)F)c2)c1
5.37 µM |  | Cc1cccc(COc2cccc(/C=C3\C(=O)NN(c4ccccc4[N+](=O)[O-])C3=O)c2)c1
2.4 µM | Active | Cc1cccc(COc2cccc(/C=C3\C(=O)NN(C(=O)c4ccncc4)C3=O)c2)c1
6.31 µM | Active | O=C1C(=Cc2ccc(OCc3ccccc3)cc2)C(=O)N(c2ccccc2)N1c1ccccc1
3.98 µM |  | O=C1NN(C(=O)c2ccccc2)C(=O)/C1=C/c1ccc(OCc2ccccc2)cc1
1.86 µM | Active | Cc1cccc(COc2cccc(/C=C3\C(=O)NN(C(=O)c4ccc(F)cc4)C3=O)c2)c1
